Source: ChEMBL document CHEMBL1148190, “Xestokerols A, B, and C, New C 29 Steroids with a Cyclopropane Ring from the Okinawan Marine Sponge Xestospongia sp” (J Nat Prod, 1993)
In brackets after ≈: the same amount, converted by molar mass. Activity calls are given as the source filed them. No cut-off for these calls is given here.

How the values were obtained:
Micrococcus luteus [1] = experiment: Antibacterial activity against Sarcina lutea; format: functional
KB = experiment: Cytotoxicity against human KB cells; format: functional, cell-based
Bacillus subtilis [2] = experiment: Antibacterial activity against Bacillus subtilis; format: functional
Staphylococcus aureus [3] = experiment: Antibacterial activity against Staphylococcus aureus; format: functional
L1210 = experiment: Cytotoxicity against mouse L1210 cells; format: functional, cell-based
Staphylococcus aureus [4] = experiment: Antibacterial activity against Staphylococcus aureus at 260 ug/ml; format: functional, organism-based
Micrococcus luteus [5] = experiment: Antibacterial activity against Sarcina lutea at 260 ug/ml; format: functional, organism-based
Bacillus subtilis [6] = experiment: Antibacterial activity against Bacillus subtilis at 260 ug/ml; format: functional, organism-based

| Structure (SMILES) | MIC (Micrococcus luteus [1]) [µg/mL] | IC50 (KB) [µg/mL] | MIC (Bacillus subtilis [2]) [µg/mL] | MIC (Staphylococcus aureus [3]) [µg/mL] | IC50 (L1210) [µg/mL] | Activity (Staphylococcus aureus [4]) | Activity (Micrococcus luteus [5]) | Activity (Bacillus subtilis [6]) |
| --- | --- | --- | --- | --- | --- | --- | --- | --- |
| CC1CC1C(C)CC(O)C(O)(CO)[C@H]1CC[C@H]2[C@@H]3CC[C@H]4CC(=O)CC[C@]4(C)[C@H]3C[C@@H](O)[C@]12C (stereo partly drawn) [XESTOKEROL A] | 16 (≈ 33.6 µM) | 4.4 (≈ 9.23 µM) | 16 (≈ 33.6 µM) | 16 (≈ 33.6 µM) | 2.1 (≈ 4.41 µM) |  |  |  |
| CC(CCC(C)(O)[C@H]1CC[C@H]2[C@@H]3[C@H](O)C[C@H]4CC(=O)CC[C@]4(C)[C@H]3C[C@@H](O)[C@]12C)C1CC1C (stereo partly drawn) [XESTOKEROL B] |  | 4.6 (≈ 9.98 µM) |  |  | 2.2 (≈ 4.78 µM) | inactive | inactive | inactive |
| C=C(C(=O)CC(C)C1CC1C)[C@H]1CC[C@H]2[C@@H]3CC[C@H]4CC(=O)CC[C@]4(C)[C@H]3C[C@@H](O)[C@]12C (stereo partly drawn) [XESTOKEROL C] | 66 (≈ 150 µM) | > 10 |  |  | 0.78 (≈ 1.77 µM) |  |  |  |
